US10837044B2, “Automated method for analyzing and interpreting an antimicrobial susceptibility” (FONDATION MEDITERRANEE INFECTION, priority 2014, dated 2020)

How the values were obtained:
Assay in all cases: antibiogram by diffusion on Mueller-Hinton agar with antibiotic wafers
Assay type in all cases: cell-based
[1] = tested on: Staphylococcus aureus; details: Table C2, sixteen wafers, square dish
Description: (§1) The inoculum was prepared by making a suspension of bacteria directly from colonies put into solution in tubes of sterile water so that the solution presented accurate opacity as determined with a spectrophotometer equivalent to the opacity of a 0.5 standard in the McFarland range. This bacterial suspension concentration is standardized since a more concentrated inoculum would lead to smaller diameters for the inhibition zone, and vice versa.
(§2) The inoculum corresponds to concentrations of about 10^8 CFU/mL for Escherichia coli, Klebsiella pneumoniae, Proteus mirabilis, Klebsiella oxytoca, Enterobacter cloacea, Enterobacter aerogenes, Entercoccus faecalis, Pseudomonas aeruginosa, Staphylococcus aureus, and Staphylococcus epidermidis. These are the ten species bacteria that are encountered the most frequently in human pathologies.
(§3) 1.2) The bacterial sample was deposited on a solid culture medium in a petri dish having a diameter of 90 mm or in a square dish having a side of 120 mm, the medium being constituted by a Mueller-Hinton agar specific for (EUCAST) antibiograms. Ideally, it should be used in the 15 minutes (min) following preparation of the suspension.
(§4) Seeding was done by the method of diffusion on an agar medium by flooding in which excess bacterial suspension was added to the Mueller-Hinton agar. After homogenizing, excess liquid was discarded in order to avoid over-inoculating the dishes. It is necessary to wait beforehand for the surface of the agar to be dry in order to eliminate any trace of moisture encouraging bacterial invasion.
(§5) The disks of the antibiotic wafers were deposited within 15 min after inoculating the agar. The antibiotic impregnated disks were deposited using an automatic dispenser that placed the disks firmly on the surface of the inoculated and dried agar. The number of disks deposited per dish was limited because of inhibition zone overlap and in order to limit interference between antibiotics. It is important for the inhibition diameters to be measurable. The antibiograms were then incubated at 37° C. for 18 hours (h) to 24 h.
(§6) The antibiotic wafers were made of high quality absorbent paper with a diameter of 6 mm and they were impregnated with antibiotics at concentrations in the range 1 micrograms (μg) to 300 μg approximately, depending on the antibiotic.
(§7) In the examples below, reference disks were used as sold by the suppliers i2a (Montpellier, France), BD (Becton Dickinson, USA), Bio-Rad (Hercules, USA), Biomerieux (Marcy l′Etoile, France) containing the following antibiotics and carrying the following codes and the following doses: AMX (amoxicillin) 25 μg: AMC (amoxicillin-clavulanic acid) 20 μg-10 μg; GM for gentamicin, 15 μg; SXT (trimethoprim-sulfamethoxazole) 1.25/23.75 μg; TIC (ticarcillin) 75 μg; TCC (ticarcillin-clavulanic acid) […]; TZP (piperacillin-tazobactam) 75/10 μg; CAZ (ceftazidime) 30 μg; IMP or IPM (imipeneme) 10 μg; COL (colistin) 50 μg; FOX (cefoxitine) 30 μg; VAN (vancomycin) 30 μg; TEC (teicoplanin) 30 μg; CLI or DA (clindamycin) 2 μg; CRO (ceftriaxone) 30 μg; CIP (ciprofloxacin) 5 μg; OFX (ofloxacin) 5 μg; CTX (cefotaxime) 5 μg; AN or AK (amikacin) 30 μg; TM (tobramycin) 10 μg; FOX (cefoxitine) 30 μg; ATM (aztreonam) 30 μg; ERT (ertapenem) 10 μg; FF (fosfomycin) 200 μg; DO (doxycycline) 30 μg; K (kanamycin) 1000 μg; L (lincomycin) 15 μs; LNZ (linezolid) 10 μg; AN (nalidixic acid) 30 μg; NOR (norfloxacin) 10 μg; PT (pristinamycin) 15 μg; RA (rifampicin) 5 μg; and E (erythromycin) 15 μg.

[2] = tested on: Escherichia coli; details: Table C2, square dish
Description: as §1, §2, §3, §4, §5, §6, §7

[3] = tested on: Klebsiella pneumoniae; details: Table C2, sixteen wafers, square dish
Description: as §1, §2, §3, §4, §5, §6, §7

[4] = S. aureus phenotype R to methicilline, R to aminosides, fluoroquinolones, to rifampicie, to macrolides and the like
[5] = E. coli phenotype Cephalosporinase + R to fluoroquinolones + R to cotrimoxazole + partial R to aminosides, sixteen wafers
[6] = E. coli phenotype Hl penicillinase + R to fluoroquinolones + R to cotrimoxazole + partial R to aminosides, sixteen wafers
[7] = E. coli phenotype Wild, sixteen wafers in a rectangular grid
[8] = K. pneumoniae phenotype Cephalosporinase + R to aminosides + R to cotrimoxazole

| Molecule | resistant (I/R) or sensitive (S) [1, 4] | resistant (I/R) or sensitive (S) ([1]; S. aureus phenotype Wild) | resistant (I/R) or sensitive (S) [2, 5] | resistant (I/R) or sensitive (S) [2, 6] | resistant (I/R) or sensitive (S) [2, 7] | resistant (I/R) or sensitive (S) [3, 8] | resistant (I/R) or sensitive (S) ([3]; K. pneumoniae phenotype Wild) |
| --- | --- | --- | --- | --- | --- | --- | --- |
| pristinamycin [PT] | R | S |  |  |  |  |  |
| CO[C@H]1/C=C/O[C@@]2(C)Oc3c(C)c(O)c4c(O)c(c(/C=N/N5CCN(C)CC5)c(O)c4c3C2=O)NC(=O)/C(C)=C\C=C\[C@H](C)[C@H](O)[C@@H](C)[C@@H](O)[C@@H](C)[C@H](OC(C)=O)[C@@H]1C [RA, rifampicin] | R | S |  |  |  |  |  |
| CO/N=C(\C(=O)N[C@@H]1C(=O)N2C(C(=O)O)=C(COC(C)=O)CS[C@H]12)c1csc(N)n1 [CTX, cefotaxime] |  |  | R | S | S | R | R |
| NC[C@H]1O[C@H](O[C@H]2[C@H](O)[C@@H](O[C@H]3O[C@H](CO)[C@@H](O)[C@H](N)[C@H]3O)[C@H](N)C[C@@H]2N)[C@H](N)C[C@@H]1O [TOB, tobramycin] | R | S | R | R | S | R | R |
| CC[C@H]1OC(=O)[C@H](C)[C@@H](O[C@H]2C[C@@](C)(OC)[C@@H](O)[C@H](C)O2)[C@H](C)[C@@H](O[C@@H]2O[C@H](C)C[C@H](N(C)C)[C@H]2O)[C@](C)(O)C[C@@H](C)C(=O)[C@H](C)[C@@H](O)[C@]1(C)O [E, erythromycin] | R | S |  |  |  |  |  |
| NCC[C@H](O)C(=O)N[C@@H]1C[C@H](N)[C@@H](O[C@H]2O[C@H](CN)[C@@H](O)[C@H](O)[C@H]2O)[C@H](O)[C@H]1O[C@H]1O[C@H](CO)[C@@H](O)[C@H](N)[C@H]1O [AK, amikacin] |  |  | S | S | S | S | R |
| CC(=O)NC[C@H]1CN(c2ccc(N3CCOCC3)c(F)c2)C(=O)O1 [LNZ, linezolid] | S | S |  |  |  |  |  |
| C[C@H]1c2cccc(O)c2C(=O)C2=C(O)[C@]3(O)C(=O)C(C(N)=O)=C(O)[C@@H](N(C)C)[C@@H]3[C@@H](O)[C@@H]21 [DO, doxycycline] | R | S |  |  |  |  |  |
| C[C@H]1[C@H](NC(=O)/C(=N\OC(C)(C)C(=O)O)c2csc(N)n2)C(=O)N1S(=O)(=O)O [ATM, aztreonam] |  |  | R | S | S | R | R |
| CC1COc2c(N3CCN(C)CC3)c(F)cc3c(=O)c(C(=O)O)cn1c23 (centres unmarked) [OFX, ofloxacin] |  |  | R | R | S | R | S |
| Cc1onc(-c2ccccc2)c1C(=O)N[C@@H]1C(=O)N2[C@@H]1SC(C)(C)[C@@H]2C(=O)O [OXA, oxacillin] | R | S |  |  |  |  |  |
| C[C@@H]1O[C@@H]1P(=O)(O)O [FF, fosfomycin] | R | S |  |  |  |  |  |
